# Article PMC8401257, “Serjanic Acid Glycosides from Chenopodium hybridum L. with Good Cytotoxicity and Selectivity Profile against Several Panels of Human Cancer Cell Lines” (Molecules, 2021)
# What was measured:
# [1] = system: 8505C; assay: LDH cytotoxicity assay, undifferentiated thyroid carcinoma 8505C; format: cell-based; settings: Homo sapiens
# Text: (§1) Human cancer and the corresponding normal cell lines, used in the study, were grouped as follows: skin panel (melanoma HTB140, derived from metastatic site: lymph node, ATCC Hs 294T; malignant melanoma A375, ATCC CRL-1619; stage I primary melanoma WM793, RRID:CVCL 8787; skin keratinocytes HaCaT), prostate panel (prostate carcinoma Du145, derived from metastatic site: brain, ATCC HTB-81; grade IV prostate carcinoma, PC3, derived from metastatic site: bone, ATCC CRL-1435; prostate epithelial cells PNT2, ECACC 95012613), gastrointestinal panel (colorectal adenocarcinomas Caco2, ATCC HTB-37, and HT29, ATCC HTB-38; hepatocellular carcinoma HepG2, ATCC HB-8065), thyroid panel (follicular thyroid carcinoma FTC133, ECACC 94060901; undifferentiated thyroid carcinoma 8505C, ECACC 94090184; Nthy-ori 3–1, human thyroid follicular epithelial cells, ECACC 90011609), lung carcinoma A549 cells (ATCC CRM-CCL-185). Cells were grown at standard conditions (37 °C, 5% CO2, relative humidity) and culture media (DMEM/F12 for PNT2, WM 793, HT29, PC3, FTC133, 8505C, A549; DMEM Low Glucose for DU145; DMEM High Glucose for HTB140, A375, HaCaT; MEM with NEAA for Caco2), supplemented with 10% fetal bovine serum (FBS) and 1% antibiotics solution (10 000 U penicillin and 10 mg streptomycin/mL). All culture media and supplements were from Sigma-Aldrich.
# (§2) Cell viability was measured with the lactate dehydrogenase (LDH) assay (Clontech, Mountain View, CA, USA), as described previously. Before the experiment, cells were seeded onto 96-well plates for 24 h (1.5 × 10^4 cells/well). The culture medium was replaced with a fresh medium containing different concentrations of the tested extracts (10–100 μg/mL, in DMSO) and incubated for 24 and 48 h. The absorbance was measured at 490 nm using a Biotek Synergy microplate reader. Cell viability was expressed as percent of the dead cells and IC50 values were also calculated. Each experiment was done in triplicate.
# (§3) Data were analyzed using Statistica v. 13.3 (Stat Soft, TIBCO, Palo Alto, CA, USA). Each variable was expressed as mean (± SD). The statistical significance in cytotoxic assay was determined using Mann–Whitney U test. The value p < 0.05 was considered to indicate significant differences. NMR Spectra were analyzed using ACD/Labs ^1D NMR Processor 12.0 (Academic Edition) and JEOL DELTA v 5.3.1 (Jeol Resonance Inc., JEOL, Tokyo, Japan). In MS analysis MassLynx V 4.1 (Waters, Milford, MA, USA) and Compass DataAnalysis (Bruker, Billerica, MA, USA) software were used. IC50 values in cytotoxic assay were calculated using Origin Pro 2020b (OriginLab Corporation, Northampton, MA, USA).
# [2] = system: HTB-140; assay: LDH cytotoxicity assay, melanoma HTB-140; format: cell-based; settings: Homo sapiens
# Text: as §1, §2, §3
# [3] = system: HepG2; assay: LDH cytotoxicity assay, hepatocellular carcinoma HepG2; format: cell-based; settings: Homo sapiens
# Text: as §1, §2, §3
# [4] = system: DU-145; assay: LDH cytotoxicity assay, prostate carcinoma DU-145; format: cell-based; settings: Homo sapiens
# Text: as §1, §2, §3
# [5] = system: WM793; assay: LDH cytotoxicity assay, primary melanoma WM793; format: cell-based; settings: Homo sapiens
# Text: as §1, §2, §3
# [6] = system: PC3; assay: LDH cytotoxicity assay, prostate carcinoma PC3; format: cell-based; settings: Homo sapiens
# Text: as §1, §2, §3
# [7] = system: HT29; assay: LDH cytotoxicity assay, colorectal adenocarcinoma HT29; format: cell-based; settings: Homo sapiens
# Text: as §1, §2, §3
# [8] = system: A375; assay: LDH cytotoxicity assay, malignant melanoma A375; format: cell-based; settings: Homo sapiens
# Text: as §1, §2, §3
# [9] = system: PNT2; assay: LDH cytotoxicity assay, normal prostate epithelial PNT2; format: cell-based; settings: Homo sapiens
# Text: as §1, §2, §3
# [10] = system: Caco-2; assay: LDH cytotoxicity assay, colorectal adenocarcinoma Caco-2; format: cell-based; settings: Homo sapiens
# Text: as §1, §2, §3
# [11] = system: FTC133; assay: LDH cytotoxicity assay, follicular thyroid carcinoma FTC133; format: cell-based; settings: Homo sapiens
# Text: as §1, §2, §3
# [12] = system: HaCaT; assay: LDH cytotoxicity assay, skin keratinocytes HaCaT; format: cell-based; settings: Homo sapiens
# Text: as §1, §2, §3
# [13] = system: A549; assay: LDH cytotoxicity assay, lung carcinoma A549; format: cell-based; settings: Homo sapiens
# Text: as §1, §2, §3
# [14] = system: Nthy-ori 3–1; assay: LDH cytotoxicity assay, thyroid follicular epithelial cells Nthy-ori 3–1; format: cell-based; settings: Homo sapiens
# Text: as §1, §2, §3
# [15] = system: HeLa cells; design: method as in doi:10.1007/s11101-009-9121-0; settings: cited from earlier work
SMILES,IC50 ([1]; 24 h),"IC50 ([2]; HTB-140, 24 h)","IC50 ([3]; HepG2, 24 h)","IC50 ([4]; DU-145, 24 h)","IC50 ([5]; WM793, 24 h)","IC50 ([6]; PC-3, PC3, 24 h)","IC50 ([7]; HT-29, HT29, 24 h)","IC50 ([8]; A-375, A375, 24 h)","IC50 ([9]; PNT2, 24 h)","IC50 ([10]; Caco-2, 24 h)","IC50 ([11]; FTC-133, FTC133, 24 h)",IC50 ([12]; 24 h),"IC50 ([13]; A549, 24 h)",IC50 ([1]; 48 h),"IC50 ([2]; HTB-140, 48 h)","IC50 ([3]; HepG2, 48 h)","IC50 ([14]; Nthy-ori 3–1, 24 h)","IC50 ([14]; Nthy-ori 3–1, 48 h)","IC50 ([4]; DU-145, 48 h)","IC50 ([5]; WM793, 48 h)",further results
"COc1cccc2c1C(=O)c1c(O)c3c(c(O)c1C2=O)C[C@@](O)(C(=O)CO)C[C@@H]3O[C@H]1C[C@H](N)[C@H](O)[C@H](C)O1 [Doxorubicin, reference compound]",> 40 µg/mL,5.71 µg/mL,1.03 µg/mL,3.18 µg/mL,> 40 µg/mL,> 50 µg/mL,1.53 µg/mL,0.59 µg/mL,1.38 µg/mL,3.44 µg/mL,4.02 µg/mL,4.68 µg/mL,1.73 µg/mL,,,,,,,,
"COC(=O)[C@@]1(C)CC[C@]2(C(=O)O[C@@H]3O[C@H](CO)[C@@H](O)[C@H](O)[C@H]3O)CC[C@]3(C)C(=CC[C@@H]4[C@@]5(C)CC[C@H](O[C@@H]6OC[C@H](O)[C@H](O)[C@H]6O[C@@H]6O[C@@H](C)[C@H](O)[C@@H](O)[C@H]6O)C(C)(C)[C@@H]5CC[C@]43C)[C@@H]2C1 [Compound 1, 3-O-α-L-Rhamnopyranosyl-(1→2)-α-L-Arabinopyranosyl Serjanic Acid 28-O-β-D-Glucopyranosyl Ester]",> 100 µg/mL,11.7 µg/mL,> 100 µg/mL,16.6 µg/mL,17.2 µg/mL,34.3 µg/mL,57.9 µg/mL,32.4 µg/mL,> 100 µg/mL,28.7 µg/mL,> 100 µg/mL,> 100 µg/mL,61.3 µg/mL,> 100 µg/mL,7.95 µg/mL,76.6 µg/mL,> 100 µg/mL,> 100 µg/mL,7.25 µg/mL,9.92 µg/mL,"IC50 ([6]; PC-3, PC3, 48 h): 19.5 µg/mL; IC50 ([7]; HT-29, HT29, 48 h): 22.8 µg/mL; IC50 ([8]; A-375, A375, 48 h): 20.3 µg/mL; IC50 ([9]; PNT2, 48 h): > 100 µg/mL; IC50 ([10]; Caco-2, 48 h): 15.3 µg/mL; IC50 ([11]; FTC-133, FTC133, 48 h): 76.3 µg/mL; IC50 ([12]; 48 h): > 100 µg/mL; IC50 ([13]; A549, 48 h): 34.7 µg/mL"
"COC(=O)[C@@]1(C)CC[C@]2(C(=O)O[C@@H]3O[C@H](CO)[C@@H](O)[C@H](O)[C@H]3O)CC[C@]3(C)C(=CC[C@@H]4[C@@]5(C)CC[C@H](O[C@@H]6OC[C@H](O)[C@H](O)[C@H]6O)C(C)(C)[C@@H]5CC[C@]43C)[C@@H]2C1 [Compound 2, 3-O-α-L-Arabinopyranosyl Serjanic Acid 28-O-β-D-Glucopyranosyl Ester]",> 100 µg/mL,39.2 µg/mL,54.2 µg/mL,33.1 µg/mL,32.2 µg/mL,23.8 µg/mL,10.7 µg/mL,39.4 µg/mL,> 100 µg/mL,20.7 µg/mL,> 100 µg/mL,> 100 µg/mL,41.7 µg/mL,> 100 µg/mL,25.1 µg/mL,39 µg/mL,> 100 µg/mL,> 100 µg/mL,23.5 µg/mL,16.8 µg/mL,"cytotoxicity towards HeLa cells [15]: inactive; IC50 ([6]; PC-3, PC3, 48 h): 18.3 µg/mL; IC50 ([7]; HT-29, HT29, 48 h): 6.48 µg/mL; IC50 ([8]; A-375, A375, 48 h): 29.3 µg/mL; IC50 ([9]; PNT2, 48 h): > 100 µg/mL; IC50 ([10]; Caco-2, 48 h): 12.6 µg/mL; IC50 ([11]; FTC-133, FTC133, 48 h): > 100 µg/mL; IC50 ([12]; 48 h): > 100 µg/mL; IC50 ([13]; A549, 48 h): 28.3 µg/mL"
